From ChEMBL document CHEMBL4177586, “Small molecule adjuvants that suppress both chromosomal and mcr-1 encoded colistin-resistance and amplify colistin efficacy in polymyxin-susceptible bacteria” (Bioorg Med Chem, 2017) come the findings set out here.

SMILES strings stand for the structures. Converted amounts (≈) assume the structure as drawn.

The test system of series [1] is Acinetobacter baumannii. Kind of series: Toxicity against multidrug resistant Acinetobacter baumannii BAA1605 incubated for overnight duration by CLSI based method. The format is organism-based. The following applies: in vivo.
In series [2] the test system is Acinetobacter baumannii. In words: Potentiation of colistin-induced antimicrobial activity against colistin-resistant Acinetobacter baumannii PM4119 assessed as colistin MIC at 30 uM incubated for overnight duration by CLSI based method (reference value: 1024 ug/ml). It is filed as functional.
Series [3] deals with Klebsiella pneumoniae. In words: Potentiation of colistin-induced antimicrobial activity against colistin-resistant Klebsiella pneumoniae C3 assessed as colistin MIC at 30 uM incubated for overnight duration by CLSI based method (reference value: 512 ug/ml). The format is functional.
Series [4] relates to Acinetobacter baumannii. In words: Potentiation of colistin-induced antimicrobial activity against Acinetobacter baumannii ATCC 17978 expressing mcr1 gene assessed as colistin MIC at 60 uM incubated for overnight duration by CLSI based method (reference value: 16 ug/ml). The format is functional.
Series [5] relates to Klebsiella pneumoniae. In words: Potentiation of colistin-induced antimicrobial activity against colistin-resistant Klebsiella pneumoniae C5 assessed as colistin MIC at 15 uM incubated for overnight duration by CLSI based method (reference value: 128 ug/ml). It is filed as functional.
Series [6] concerns Klebsiella pneumoniae. Kind of series: Potentiation of colistin-induced antimicrobial activity against colistin-resistant Klebsiella pneumoniae C3 assessed as colistin MIC at 15 uM incubated for overnight duration by CLSI based method (reference value: 512 ug/ml). The format is functional.
The test system of series [7] is Klebsiella pneumoniae. In words: Potentiation of colistin-induced antimicrobial activity against colistin-resistant Klebsiella pneumoniae B9 assessed as colistin MIC at 15 uM incubated for overnight duration by CLSI based method (reference value: 512 ug/ml). It is filed as functional.
Series [8] relates to Escherichia coli. Kind of series: Potentiation of colistin-induced antimicrobial activity against Escherichia coli ATCC 25922 expressing mcr1 gene assessed as reduction in colistin MIC at 60 uM incubated for overnight duration by CLSI based method relative to colistin alone control. The format is functional.
The subject of series [9] is Acinetobacter baumannii. In words: Potentiation of colistin-induced antimicrobial activity against colistin-resistant Acinetobacter baumannii PM4112 assessed as colistin MIC at 60 uM incubated for overnight duration by CLSI based method (reference value: 1024 ug/ml). It is filed as functional.
The test system of series [10] is Acinetobacter baumannii. Kind of series: Potentiation of colistin-induced antimicrobial activity against Acinetobacter baumannii ATCC 17978 expressing mcr1 gene assessed as reduction in colistin MIC at 60 uM incubated for overnight duration by CLSI based method relative to colistin alone control. The format is functional.
For series [11], the system named is Klebsiella pneumoniae. Kind of series: Potentiation of colistin-induced antimicrobial activity against Klebsiella pneumoniae 2210291 expressing mcr1 gene assessed as reduction in colistin MIC at 60 uM incubated for overnight duration by CLSI based method relative to colistin alone control. It is filed as functional.
The subject of series [12] is Klebsiella pneumoniae. In words: Potentiation of colistin-induced antimicrobial activity against colistin-resistant Klebsiella pneumoniae B9 assessed as colistin MIC at 60 uM incubated for overnight duration by CLSI based method (reference value: 512 ug/ml). The format is functional.
For series [13], the system named is Klebsiella pneumoniae. Kind of series: Potentiation of colistin-induced antimicrobial activity against colistin-resistant Klebsiella pneumoniae C3 assessed as reduction in colistin MIC at 15 uM incubated for overnight duration by CLSI based method relative to colistin alone control. The format is functional.
Series [14] deals with Acinetobacter baumannii. In words: Potentiation of colistin-induced antimicrobial activity against colistin-resistant Acinetobacter baumannii PM3942 assessed as colistin MIC at 60 uM incubated for overnight duration by CLSI based method (reference value: 512 ug/ml). The format is functional.
The test system of series [15] is Escherichia coli. Kind of series: Potentiation of colistin-induced antimicrobial activity against Escherichia coli ATCC 25922 expressing mcr1 gene assessed as colistin MIC at 60 uM incubated for overnight duration by CLSI based method (reference value: 8 ug/ml). The format is functional.
The test system of series [16] is Klebsiella pneumoniae. Kind of series: Potentiation of colistin-induced antimicrobial activity against colistin-resistant Klebsiella pneumoniae C5 assessed as reduction in colistin MIC at 30 uM incubated for overnight duration by CLSI based method relative to colistin alone control. The format is functional.
Series [17] concerns Acinetobacter baumannii. Kind of series: Potentiation of colistin-induced antimicrobial activity against colistin-resistant Acinetobacter baumannii PM3941 assessed as colistin MIC at 15 uM incubated for overnight duration by CLSI based method (reference value: 512 ug/ml). It is filed as functional.
For series [18], the system named is Klebsiella pneumoniae. In words: Potentiation of colistin-induced antimicrobial activity against colistin-resistant Klebsiella pneumoniae C5 assessed as colistin MIC at 60 uM incubated for overnight duration by CLSI based method (reference value: 128 ug/ml). It is filed as functional.
Series [19] deals with Klebsiella pneumoniae. In words: Potentiation of colistin-induced antimicrobial activity against Klebsiella pneumoniae 2210291 expressing mcr1 gene assessed as colistin MIC at 60 uM incubated for overnight duration by CLSI based method (reference value: 16 ug/ml). It is filed as functional.

The molecule `CCCCCCc1ccc(-c2cn(CC)c(N)n2)cc1` displayed an MIC in the series on Acinetobacter baumannii [1] of 200 µM (≈ 54.3 µg/mL).
Consider `CCCCCc1ccc(C(=O)NCCn2cc(CCCCCc3cnc(N)n3Cc3ccc(CCCC)cc3)nn2)cc1`, for which the MIC was determined as 4 µg/mL in the series with Acinetobacter baumannii [2]; 16 µg/mL in the series with Klebsiella pneumoniae [3]; 0.25 µg/mL in the series on Acinetobacter baumannii [4]; 32 µg/mL in the series on Klebsiella pneumoniae [5]; 64 µg/mL in the series with Klebsiella pneumoniae [6]; 32 µg/mL in the series with Klebsiella pneumoniae [7]. The MIC in the series with Acinetobacter baumannii [9] is 8 µg/mL; in the series with Klebsiella pneumoniae [12], 4 µg/mL; in the series with Acinetobacter baumannii [14], 4 µg/mL; in the series on Escherichia coli [15], 0.031 µg/mL; in the series on Acinetobacter baumannii [17], 32 µg/mL; with Klebsiella pneumoniae [18], 2 µg/mL. The MIC with Klebsiella pneumoniae [19] amounted to 0.125 µg/mL. Further, the “fold change (FC)” value in the series on Escherichia coli [8] is listed as 256; in the series with Acinetobacter baumannii [10], 64; with Klebsiella pneumoniae [11], 128; with Klebsiella pneumoniae [13] it was 8; in the series on Klebsiella pneumoniae [16] it was 32.
